Source: paper PMC12410356 (International Journal for Parasitology: Drugs and Drug …, 2025)

How the values were obtained:
[1] = system: E. multilocularis metacestode vesicles; assay: Phosphoglucose isomerase (PGI) release assay (damage-marker release) on metacestode vesicles; type: cell-based, Echinococcus multilocularis; details: 10 μM; for PGI d5 (relative PGI release): 5 days; for PGI d12 (relative PGI release): 12 days
[2] = system: E. multilocularis metacestode vesicles; assay: Metacestode vesicle viability assay (ATP, CellTiter-Glo); type: cell-based, Echinococcus multilocularis
Experimental: Viability was assessed after 12 days using the same metacestode vesicles as for the PGI release assay. Triton X-100 was added to each well to a final concentration of 0.1 %. Subsequently the metacestode vesicles were broken mechanically and 50 μL of the supernatant was mixed with 50 μL of CellTiter-Glo® buffer (Promega, Dübendorf, Switzerland). Measurements were performed on a HIDEX Sense microplate reader.

[3] = overview screen, singlets, relative to 0.1 % Triton X-100, DMSO subtracted
[4] = overview screen, 10 μM, singlets, 12 days, relative to DMSO control
[5] = confirmation screen, triplicates, mean
[6] = confirmation screen, 10 μM, triplicates, mean, 12 days

SMILES | PGI d5 (relative PGI release) [1, 3] | PGI d12 (relative PGI release) [1, 3] | Viability d12 (relative viability) [2, 4] | PGI d5 (relative PGI release) [1, 5] | PGI d12 (relative PGI release) [1, 5] | Viability d12 (relative viability) [2, 6] | Viability d12 (relative viability) ([2]; 10 µM)
COc1cc(NS(=O)(=O)c2ccc(C)cc2)c2ncccc2c1 [MMV098836] | -0.2103% | 2.3899% | 72.5053% |  |  |  | 
COc1cc(Cc2cnc(N)nc2N)cc(OC)c1OC [MMV000028] | -3.0237% | -24.4435% | 71.724% |  |  |  | 
CCC(C)(C)c1ccc(CC(C)CN2C[C@@H](C)O[C@@H](C)C2)cc1.Cl (stereo partly drawn) [MMV1634358] | 0.7921% | -20.4097% | 23.2957% |  |  |  | 
CC(C)Oc1ccc(-n2cnc3cc(/C=C\c4ccc(C(C)(C)O)cc4)ccc32)cc1 [MMV1782350] | -0.1916% | 0.3132% | 72.1416% |  |  |  | 
Clc1cccc(-c2nnc(-c3ccccc3)o2)c1 [MMV141011] | -1.462% | -13.7141% | 31.8959% |  |  |  | 
Cc1nc(N(C)C(=O)Cc2ccc(-c3ccccn3)cc2)sc1S(N)(=O)=O [MMV1580486] | -0.111% | 0.7043% | 136.799% |  |  |  | 
CCOc1ccc(/C=N/NC(=O)C2CC2c2ccc(C(C)(C)C)cc2)cc1OCC (stereo not drawn) [MMV1634398] | 0.06885% | 0.3627% | 324.092% |  |  |  | 
CC1(C)CC(NC(=O)C(=O)Nc2ccc(Cl)cc2)CC(C)(C)N1 [MMV1580501] | 0.3852% | 0.4399% | 102.317% |  |  |  | 
OCCC#Cc1nc(-c2ccc(F)cc2)c(-c2ccncc2)n1CCCc1ccccc1 [MMV1580797] | 0.809% | -17.1938% | 270.956% |  |  |  | 
NC(=O)c1c(N)sc2c1CCCCC2 [MMV056052] | 0.2417% | 3.2439% | 78.9817% |  |  |  | 
O=C(CC1Sc2ncnn2C1=O)Nc1ccc(Br)cc1 (stereo not drawn) [MMV214956] | -1.614% | -20.0728% | 47.1606% |  |  |  | 
O=C(Nc1ccc(-c2ccccc2)cc1)C1=C(O)C(Cc2ccccc2)OC1=O (stereo not drawn) [MMV1593531] | 4.793% | 88.1717% | 16.5533% | 0.17% | 1.55% | 49.52% | 
Cc1cccc(C)c1C(=O)Nc1nc(-c2ccccn2)cc2ccccc12 [MMV1581558] | 1.519% | 3.408% | 99.5465% |  |  |  | 
CCn1cc(C(=O)O)c(=O)c2cc(F)c(N3CCNC(C)C3)c(F)c21.Cl (stereo not drawn) [MMV002350] | 0.8503% | 0.3517% |  |  |  |  | 92.559%
C=CCN(C(=O)OCc1ccc([N+](=O)[O-])cc1)C1CCN(CC[C@](C)(CN(C)S(=O)(=O)c2ccccc2)c2ccccc2)CC1 [MMV1782214] | 0.9992% | 3.53% | 76.726% |  |  |  | 
O=C(N[C@H](Cc1cccc2ccccc12)C(=O)NCCc1c[nH]cn1)C1Cc2ccccc2C1 [MMV1782109] | -2.59% | -25.3398% | 29.391% |  |  |  | 
CC(C)c1ccc(COc2cccc(-c3cc([S+](C)[O-])c(C#N)c(=O)[nH]3)c2)cc1 (stereo not drawn) [MMV1582497] | 3.781% | -9.364% | 210.079% |  |  |  | 
Cn1cc(NC(=O)c2cc(NC(=O)c3ccc(/C=C/c4cnc5ccccc5c4)cc3)cn2C)cc1C(=O)NCCN1CCOCC1 [MMV1634391] | -0.2305% | 21.1965% | 70.2948% |  |  |  | 
NC1C2CC3CC(C2)CC1C3 (stereo not drawn) [MMV180402] | -0.5217% | -14.4779% | 111.504% |  |  |  | 
CC(C)Oc1cccc(NC(=O)c2ccccc2C(F)(F)F)c1 [MMV1009286] | -2.405% | -25.3832% | 77.2348% |  |  |  | 

SMILES | PGI d5 (relative PGI release) [1, 3] | PGI d12 (relative PGI release) [1, 3] | Viability d12 (relative viability) [2, 4] | PGI d5 (relative PGI release) [1, 5] | PGI d12 (relative PGI release) [1, 5] | Viability d12 (relative viability) [2, 6] | Viability d12 (relative viability) ([2]; 10 µM)
CSC[C@H]1CN(Cc2c[nH]c3c(N)ncnc23)C[C@@H]1O [MMV1578565] | -1.805% | -12.574% | 59.0324% |  |  |  | 
Cc1ccc(Oc2ccccc2-c2csc(N=C3NCCCN3)n2)c(C)c1 [MMV1634493] | 4.111% | 7.6311% | 36.7387% |  |  |  | 
C=C[C@]1(C)C[C@@H](OC(=O)CS[C@@H]2C[C@H]3CC[C@@H](C2)N3C)[C@]2(C)[C@H](C)CC[C@]3(CCC(=O)[C@H]32)[C@@H](C)[C@@H]1O [MMV1633674] | -1.377% | 19.1844% |  |  |  |  | 92.0635%
Cc1cc(Nc2ccc(F)cc2)nc(SCc2nc3ccccc3[nH]2)n1 [MMV1582498] | 0.3642% | 1.096% | 46.2574% |  |  |  | 
c1cc(CN2CCCNCCNCCCNCC2)ccc1CN1CCCNCCNCCCNCC1 [MMV1580502] | -0.2909% | 2.621% | 124.773% |  |  |  | 
O=C1NC(=S)N/C1=C\c1cc(Br)cc(Br)c1O [MMV1578569] | 1.516% | -5.575% | 64.4597% |  |  |  | 
CC(C)N(c1cc(-c2ccccc2)sc1C(=O)O)C(=O)[C@H]1CC[C@H](C)CC1 [MMV1634388] | 1.026% | 40.2559% | 13.9085% | 0.59% | 0.29% | 128.08% | 
CCc1cc(Cc2cnc(N)nc2N)cc2c1N(C)CCC2C (stereo not drawn) [MMV1582490] | 9.437% | 80.495% | 27.4864% | 0.0536% | -0.39% | 117.48% | 
Nc1nc(O)c(Br)c(-c2cccc(Cl)c2)n1 [MMV1645152] | -0.1718% | -17.4315% | 465.171% |  |  |  | 
O=C(NCCN1CCCCC1)c1cccc(C(F)(F)F)c1 [MMV1633964] | 0.4856% | -18.3006% | 94.8358% |  |  |  | 
O=C(Nc1[nH]c(=O)ncc1F)c1ccccc1 [MMV1782225] | -0.8152% | -21.87% | 224.691% |  |  |  | 
C[C@H]1CC[C@]2(NC1)O[C@H]1C[C@H]3[C@@H]4CC[C@H]5C[C@@H](O)CC[C@]5(C)[C@H]4CC[C@]3(C)[C@H]1[C@@H]2C.Cl [MMV003069] | -0.8739% | -0.2652% | 243.729% |  |  |  | 
Nc1nc(=O)c(Br)c(-c2ccccc2)[nH]1 [MMV690540] | 2.1344% | 38.5177% | 20.6612% | 0.19% | 1.01% | 98.22% | 
C[C@@H](NC(=O)c1cccc(-c2cnc(-c3cc4ccccc4cn3)[nH]2)c1)c1ccc(F)cc1 [MMV1782211] | 2.451% | 6.1027% | 82.804% |  |  |  | 
COc1ccc2cc3[n+](cc2c1OCCN(CCn1cncn1)Cc1ccc(F)cc1F)CCc1cc2c(cc1-3)OCO2 [MMV1593540] | 1.275% | 36.6613% | 37.1562% |  |  |  | 
Nc1nc(F)nc2c1ncn2[C@@H]1O[C@H](CO)[C@@H](O)[C@@H]1O [MMV637413] | -0.694% | 1.228% | 168.919% |  |  |  | 
CCCCSc1nc(N)c2[nH]c(=O)c(=O)n(Cc3ccccc3)c2n1 [MMV1579783] | 3.365% | -15.2556% | 63.4578% |  |  |  | 
CCC[C@@H]1C[C@@H](C(=O)N[C@@H]([C@H]2O[C@H](SC)[C@H](O)[C@@H](O)[C@H]2O)[C@H](C)Cl)N(C)C1.Cl [MMV000051] | 15.4885% | 58.7211% | 23.7506% | 0.38% | -0.19% | 61.99% | 
COc1ccc2c(c1OC)C(=O)OC2C1c2c(cc3c(c2OC)OCO3)CCN1C (stereo not drawn) [MMV002780] | -0.3679% | -3.872% | 419.126% |  |  |  | 
NC[C@H]1O[C@H](O[C@H]2[C@H](O)[C@@H](O[C@H]3O[C@H](CO)[C@@H](O)[C@H](N)[C@H]3O)[C@H](N)C[C@@H]2N)[C@H](N)C[C@@H]1O [MMV002459] | -1.087% | -12.65% | 35.1523% |  |  |  | 
